| SMILES | melting point |
| --- | --- |
| O=C(NCc1cccnc1)c1ccc2n1Cc1ccccc1N(C(=O)c1ccc(-c3ccccc3CN3CCCC3)cc1)C2 | 210 to 212 °C |
| O=C(CN1CCN(C(=O)OCc2ccccc2)CC1)Nc1ccccn1 | 78 to 80 °C |
| O=C(O)c1cc(-n2c(-c3cccc(C(F)(F)F)c3)cc3c2CCCC3)ccc1O | 215 to 225 °C |
| CC(C)(C)C(=O)c1ccc(S(=O)(=O)C[N+](=O)[O-])s1 | 98 to 99 °C |
| Cc1ccn2c(C)c(-c3ccc4c(c3)NC(=O)C(C)O4)nc2c1 (stereo not given) | 254 to 256 °C |
| C=CCOC(=O)C1=C(C)Nc2nc(N)nc(N)c2C1c1cccc([N+](=O)[O-])c1 (stereo not given) | 188 °C |
| COc1ccc2c3c([nH]c2c1[N+](=O)[O-])C(O)CC3 (stereo not given) | 192 °C |
| CCOC(=O)C(=NOCC(=O)OCC(Cl)(Cl)Cl)c1csc(N)n1 | 138 to 141 °C |
| CC(=O)Nc1cccc(C(C)=O)c1C(=O)O | 131 °C |
| COc1ccc(C=O)cc1OC(=O)CCl | 88 to 89 °C |
| CCOc1ccc(NC(=S)SC)cc1F | 108 °C |
| Cc1c(Br)c2c(c(C)c1NC(=O)OC(C)(C)C)C(N(C)C)C(C)(C)O2 (stereo not given) | 111 to 112 °C |
| O=C(CCCCl)c1ccc2c(c1)Cc1cc(C(=O)CCCCl)ccc1S2 | 115 to 116 °C |
| CSCC(=O)[C@H](Cc1ccc(Cl)cc1)NC(=O)[C@H](CC(C)C)NC(=O)OCc1ccccc1 | 119 to 121 °C |
| O=C(O)c1cc(-c2ccc3c(c2)CCO3)nn(CCCc2ccc(Cl)cc2)c1=O | 157 to 160 °C |
| CC(C)(C)c1cc(Nc2ccccc2C#N)cc(C(C)(C)C)c1O | 172 °C |
| C[C@H]1N[C@H](c2ccc(Br)cc2)[C@@H]2C(=O)N(Cc3ccccc3)C(=O)[C@@H]21 (racemic) | 170 to 172 °C |
| O=C(Nc1ccccc1F)c1c(O)ccn2c1nc1ccccc12 | 237 to 238 °C |
| COc1cccc2c(Oc3cc(-n4c(=O)cc(C(F)(F)F)n(C)c4=O)c(F)cc3C#N)cccc12 | 109 °C |
| CC(=O)OC[C@](O)(CO)c1ccc(F)cc1F | 52 to 53 °C |
| CC1(C)OC(=S)Nc2ccc(-c3cc(Cl)cc(Cl)c3)cc21 | 206 to 208 °C |
| COC(=O)c1ccccc1NS(=O)(=O)NC(C)C | 106 to 108 °C |

| SMILES | melting point |
| --- | --- |
| Cn1cc(C(=O)NCc2ccc(Cl)cc2)c(=O)c2cc(CC3CCOCC3)ccc21 | 219 to 221 °C |
| COc1ccc(CN(C)CCCCc2ccc(NC(=O)c3cnc4ccccc4n3)cc2)cc1OC | 82 to 85 °C |
| CC12CCC3(CC1CCC1C2CCC2(C)C1CC(O)C2N=[N+]=[N-])OCCO3 (stereo not given) | 112 to 116 °C |
| CCCN(CCCc1c[nH]c2c(F)cc(F)cc12)C1COc2c(C(N)=O)ccc(F)c2C1 (stereo not given) | 130 °C |
| CS(=O)c1ccc(OCc2ccccc2)c(CCCc2ccc(C(=O)NCCO)cc2)c1 (stereo not given) | 105 to 108 °C |
| O=C1NCc2cc(C(c3ccccc3)n3ccnc3)ccc2N1 (stereo not given) | 222 °C |
| Nc1ccc(NC(=O)[C@@H](NC(=O)c2ccc(C(=O)O)cc2)c2ccccc2)cc1 | 151 °C |
| CC(C)CN1C(=O)[C@@H](CC(=O)O)N[C@H](c2ccccc2Cl)c2cc(Cl)ccc21 | 184 to 188 °C |
| CCC(=O)N1CCN(C(=O)OC2C3=C(SCC(OC)CS3)C(=O)N2c2ccc(Cl)cn2)CC1 (stereo not given) | 160 °C |
| O=Cc1cc2sc3ccccc3c2c2ccccc12 | 142 to 144 °C |
| N#CCCNC(=O)c1n[nH]cc1NC(=O)c1ccccn1 | 223 to 224 °C |
| CCN(CC)CCNC(=O)c1cc(Cl)c(N)cc1OCC(=O)c1ccccc1 | 153 to 154 °C |
| CCOC(=O)c1[nH]cc(C)c1-c1ccccc1 | 62 to 64 °C |
| CC1(C)C=C(C#Cc2ccccn2)CC(C)(C)C1 | 55 to 56 °C |
| CC(=O)OCC12CCC(OC(C)=O)CC1CCC1C2CCC2(C)C(OC(=O)C(C)(C)C)CCC12O (stereo not given) | 155 to 156 °C |
| O=S1(=O)c2ccccc2Oc2cc(O)ccc21 | 213 to 215 °C |
| COC(=O)Cc1ccc(CNC(=O)C2Cc3ccccc3N2S(=O)(=O)c2ccc(-c3ccc(F)cc3F)cc2)cc1 (stereo not given) | 68 to 72 °C |
| Cc1cccc(Nc2ncnc3ccc(CSc4nc5ccccc5[nH]4)cc23)c1 | 123 to 129 °C |
| COc1ccc(CC(=O)N2CCCCC2CC(c2ccccc2)c2ccccc2)cc1OC (stereo not given) | 113 to 114 °C |
| O=C1OC(Cc2ccccc2)CN1Cc1ccccc1 (stereo not given) | 81 to 82 °C |
| N#CC1=Cc2ccccc2N(C(N)=O)c2ccccc21 | 143 to 145 °C |
| CCOC(C)n1c(Cl)nc(-c2ccc(OC)cc2)c1-c1ccc(OC)cc1 (stereo not given) | 118 to 120 °C |

| SMILES | melting point |
| --- | --- |
| Cc1nc(C)c(Cl)c(NCc2nccc(SCCCSCCn3c([N+](=O)[O-])cnc3C)c2C)n1 | 145 to 147 °C |
| COc1ccccc1Oc1cccc2c1OC(=O)C2 | 171 to 172 °C |
| O=C(CNS(=O)(=O)c1ccc(Nc2nccc(Nc3ccc(F)cc3)n2)cc1)NC1CCOCC1 | 253 to 254 °C |
| O=C(O)CCC(=O)NCCCCCC1CCSS1 (stereo not given) | 74 °C |
| CCONC(=O)c1c(Cl)ccc2cc(Cl)cnc12 | 140 °C |
| CN(C)C1(C(=O)c2cc3ccccc3n2C)CCC(c2ccccc2)(N(C)C)CC1 (stereo not given) | 109 to 111 °C |
| CC(C)(C)OC(=O)NCC1CCN(CC2(C(=O)O)CCCC2)CC1 | 150 °C |
| Cc1nc(N)nc(N)c1N=Nc1ccc(Br)cc1 | 245 to 246 °C |
| CC1(CC(=O)O)SCCC2=C1Cc1ccccc12 (stereo not given) | 119 to 121 °C |
| CC(C)Oc1cc(COc2cc(CCC(=O)O)n(-c3ccccc3)n2)cc(COc2ncc(C(F)(F)F)cc2Cl)c1 | 140 to 142 °C |
| O=C(Cl)c1ccc(OC(=O)c2cccc(C(=O)Oc3ccc(C(=O)Cl)cc3)c2)cc1 | 204 °C |
| CCOC(=O)c1cn(C)nc1OCc1ccc(OCc2nc(-c3ccco3)oc2C)c(OC)c1 | 117 to 118 °C |
| CCOC(=O)NCC(O)c1ccc(OC)c(OC)c1 (stereo not given) | 90 to 92 °C |
| OCc1nccc(N2CCCCC2)n1 | 92 to 93 °C |
| CC(C)(SCCCCCCNS(=O)(=O)c1ccc(Cl)cc1)C(=O)O | 93 to 94 °C |
| COc1ccc(C=CC(=O)N(C)O)cc1OC | 150 °C |
| CCc1ccccc1NC(=O)C(C#N)=C(C)N(C)C | 79 to 81.5 °C |
| Cc1cc2c(cc1C)C(O)(c1ccccc1Cl)C(=O)N2 (stereo not given) | 251 to 253 °C |
| Cc1cc(C(O)=S)cc(N)c1Cc1ccccc1 | 153 to 154 °C |
| Nc1ncnc2c1c(-c1ccccc1Cl)cn2-c1ccccc1 | 175 to 176 °C |
| CCOC(=O)NCCN1CCC(n2c(=O)[nH]c3cc(Cl)ccc32)CC1 | 188 °C |
